Results reported in paper PMC10892719 (Pharmaceutics, 2024).

Key:
Aβ1-42 = biological target: T1, Aβ1-42 (Homo sapiens, UniProt P05067); assay: Inhibition of Aβ1-42 self-aggregation, thioflavin T fluorescence; assay type: biochemical; settings: Cinhibitor = 20 µM, Aβ1-42 40 µM, 37 °C, 24 h, read-out: Aβ42 Self-Aggreg. Inhib
T1 construct: purchased Genecust, Boynes, France
Experimental: The Aβ peptide (Genecust, Boynes, France) was treated with 1,1,1,3,3,3-hexafluoropropan-2-ol (HFIP, Aldrich, Steinheim, Germany) and dissolved in a CH3CN/Na2CO3 (300 µM)/NaOH (250 µM) ([…], v/v/v) mixture in order to have a stable stock solution of Aβ1-42 with concentration 500 µM.
Solutions of the assayed compounds (0.5 mg/mL) were firstly prepared in 60% (v/v) DMSO/MeOH medium and then diluted in phosphate buffer (0.215 M, pH 8.0) to a concentration of 120 µM. The Aβ1-42 aggregation inhibition assays were performed according to a reported method based on the fluorescence emission of thioflavin T (ThT, Aldrich Steinheim, Germany). Therefore, Aβ1-42 (40 µM) was incubated at 37 °C for 24 h in phosphate buffer and in the presence or absence of each ligand (20 µM). Then, the samples were added to a 96-well plate with 180 µL of 5 µM ThT in 50 mM glycine-NaOH (pH 8.5) buffer. Blank samples were identically prepared for each concentration but in the absence of the peptide. The ThT fluorescence was measured at 445 nm (excitation) and 485 nm (emission). The percent of aggregation inhibition was calculated by the following equation:I% = 100 − (IFi/IF0 × 100), in which IFi and IF0 are the fluorescence intensities, in the presence and the absence of the tested compound, subtracted from the fluorescence intensities due to the respective blanks. The reported values were obtained as the mean ± SEM of two different experiments performed in duplicate.
The inhibitory capacity of the RIV-IND hybrids towards Aβ42 self-aggregation was evaluated in vitro by molecular fluorescence spectroscopy through the thioflavin T (ThT) method. In fact, since there is an increase in the absorbance and emission of ThT when it binds to amyloid fibrils, it is possible to determine the percent of Aβ42 self-aggregation (see Table 1). The assays were performed in the presence of 20 µM of inhibitor to overcome the solubility limitations of some compounds in the phosphate buffer aqueous medium.

[1] = DPPH free radical scavenging (antioxidant) assay; settings: read-out: Antioxidant Activity EC50; DPPH method, mean of three independent experiments
Experimental: The radical scavenging activity (antioxidant capacity) of the herein-developed RIV-IND hybrids was determined by the DPPH method [33]. Working solutions of the compounds in 10% DMSO/MeOH (, HoneywellSeelze, Germany) medium were used to prepare 5 methanolic solutions (5 points, 3 replicates) containing DPPH (Sigma-Aldrich, Steinheim, Germany) and different concentrations of compound up to 3.5 mL total volume. […] The respective antioxidant activity (%AA) was calculated using the following equation: %AA=ADPPH−Aligand/ADPPH×100
The reported results were obtained as the mean values of three independent experiments.
The new RIV-IND compounds were also screened for their radical scavenging activity (EC50), according to the 2,2-diphenyl-1-picrylhydrazyl (DPPH) free radical method.

[2] = biological target: T2, electric eel acetylcholinesterase (eeAChE) (Electrophorus electricus, UniProt O42275); assay: AChE inhibition, adapted Ellman method; assay type: biochemical; settings: mean of two independent experiments ± SD, read-out: AChE Inhib IC50
T2 construct: purchased Sigma-Aldrich (Steinheim, Germany)
Experimental: The enzyme inhibition of electric eel acetylcholinesterase (eeAChE) and equine butyrylcholinesterase (eqBChE) by our compounds was evaluated through an adaptation of Elmman´s method using reagents from Sigma-Aldrich (Steinheim, Germany). Stock solutions of each compound (1 mg) in MeOH (1 mL) were prepared and then working solutions for each ligand were obtained by the corresponding dilution of the stock solutions. A control measurement with 5 replicates (without ligand) and a calibration curve of 5 points with 3 replicates per point was performed. The preparation of each solution involved fixed volumes of 4-(2-hydroxyethyl)-1-piperazine-ethanesulfonic acid (HEPES) and cholinesterase (eeAChE or eqBChE) with different volumes of ligand solution, and it was left to rest for 15 min immediately after adding the cholinesterase. A blank solution containing HEPES and MeOH was also prepared at the same time. […] The slope for each calibration point (absorbance versus reaction time) was determined and the inhibition for each compound was calculated by using the following equation: %Inhibition=100−(vi/v0×100) where vi is the reaction rate (slope) for each point of the calibrate with ligand and v0 is the initial reaction rate (slope) for the control point (without ligand). […] Experiments were performed twice for each compound.

T1 sequence (P05067 672-713 limits assumed): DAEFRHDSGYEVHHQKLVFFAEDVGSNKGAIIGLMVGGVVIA
T2 sequence (O42275 24-633): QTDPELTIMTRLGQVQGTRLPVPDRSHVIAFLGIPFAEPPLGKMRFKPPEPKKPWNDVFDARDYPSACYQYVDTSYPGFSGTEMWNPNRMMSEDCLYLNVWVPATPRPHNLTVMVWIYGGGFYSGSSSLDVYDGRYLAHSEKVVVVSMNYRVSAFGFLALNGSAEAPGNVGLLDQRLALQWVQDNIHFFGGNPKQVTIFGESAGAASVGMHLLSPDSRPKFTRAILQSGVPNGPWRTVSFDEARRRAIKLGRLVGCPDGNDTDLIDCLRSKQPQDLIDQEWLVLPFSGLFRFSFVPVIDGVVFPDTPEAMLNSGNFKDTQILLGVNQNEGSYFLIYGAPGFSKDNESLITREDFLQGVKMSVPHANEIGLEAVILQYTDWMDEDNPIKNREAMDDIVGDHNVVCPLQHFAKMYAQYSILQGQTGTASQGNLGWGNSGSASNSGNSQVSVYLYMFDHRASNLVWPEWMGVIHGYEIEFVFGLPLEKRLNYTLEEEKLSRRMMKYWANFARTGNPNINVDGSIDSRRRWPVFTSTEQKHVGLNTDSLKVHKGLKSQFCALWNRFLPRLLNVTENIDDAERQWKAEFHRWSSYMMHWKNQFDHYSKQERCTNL

Structure (SMILES) | inhibition at 20 µM (Aβ1-42) | EC50 [1] | IC50 [2]
CCN(C)C(=O)Oc1cccc(NC(=O)c2cc3cccc(O)c3[nH]2)c1 [Compound 5a3, 3-(7-Hydroxy-1H-indole-2-carboxamido)phenyl ethyl(methyl)carbamate] | 50.3% | 14.5 ± 0.5 µM | 10.9 ± 0.1 µM
CCN(C)C(=O)Oc1cccc(CNC(=O)c2cc3ccccc3[nH]2)c1 [Compound 5b1, 3-((1H-indole-2-carboxamido)methyl)phenyl ethylmethylcarbamate] | 19.9% | > 2000 µM | 78.4 ± 0.8 µM
